Molecular target: T1, TspDTI (Thermus sp. DT, UniProt A8QN47)
T1 construct: recombinant from E. coli DH11S [pRZ-TspDTI], one extra Ala codon (GCG) after the start Met; native enzyme from Thermus sp; DT also purified; monomer; N-terminus […]
Test: lambda DNA cleavage, agarose gel
Assay type: biochemical
Details: Mg2+ restriction buffer, 70 C, 30 min, allosteric activator (site not established)

T1 sequence (A8QN47 entry or part of it): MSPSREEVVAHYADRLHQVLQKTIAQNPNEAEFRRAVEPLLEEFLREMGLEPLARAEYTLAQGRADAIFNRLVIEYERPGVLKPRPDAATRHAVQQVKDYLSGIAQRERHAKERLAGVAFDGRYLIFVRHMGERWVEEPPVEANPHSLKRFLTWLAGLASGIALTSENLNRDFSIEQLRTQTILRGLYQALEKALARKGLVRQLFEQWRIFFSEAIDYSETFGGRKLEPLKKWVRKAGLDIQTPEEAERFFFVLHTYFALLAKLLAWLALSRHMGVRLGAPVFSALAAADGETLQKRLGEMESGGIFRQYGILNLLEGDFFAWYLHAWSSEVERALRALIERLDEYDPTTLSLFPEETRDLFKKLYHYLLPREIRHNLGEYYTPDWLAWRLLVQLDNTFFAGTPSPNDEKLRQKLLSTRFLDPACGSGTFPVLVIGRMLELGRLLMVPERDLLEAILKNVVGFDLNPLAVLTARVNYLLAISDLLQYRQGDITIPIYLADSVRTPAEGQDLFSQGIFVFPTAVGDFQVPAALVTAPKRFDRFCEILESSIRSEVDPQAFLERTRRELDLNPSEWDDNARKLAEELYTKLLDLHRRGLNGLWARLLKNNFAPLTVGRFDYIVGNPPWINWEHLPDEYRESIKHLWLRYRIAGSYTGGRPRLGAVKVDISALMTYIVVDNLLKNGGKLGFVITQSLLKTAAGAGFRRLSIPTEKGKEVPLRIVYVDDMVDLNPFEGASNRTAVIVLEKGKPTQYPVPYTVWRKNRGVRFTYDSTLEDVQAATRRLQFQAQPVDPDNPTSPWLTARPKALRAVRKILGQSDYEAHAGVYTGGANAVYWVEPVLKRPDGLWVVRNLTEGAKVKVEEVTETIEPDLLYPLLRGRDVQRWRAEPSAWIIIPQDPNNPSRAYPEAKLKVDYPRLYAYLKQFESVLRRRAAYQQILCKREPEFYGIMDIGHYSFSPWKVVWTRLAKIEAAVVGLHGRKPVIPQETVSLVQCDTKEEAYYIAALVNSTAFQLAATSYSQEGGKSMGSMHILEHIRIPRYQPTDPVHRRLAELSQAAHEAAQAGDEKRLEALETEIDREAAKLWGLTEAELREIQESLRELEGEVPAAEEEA

SMILES | lambda DNA cleavage, agarose gel (stimulates REase at 50 uM SAM, also methyl donor of the MTase activity (200 uM)) | lambda DNA cleavage, agarose gel (stimulates REase at 50 uM SIN, SAM analogue, not a methyl donor)
C[S+](CC[C@H](N)C(=O)O)C[C@H]1O[C@@H](n2cnc3c(N)ncnc32)[C@H](O)[C@@H]1O (some centres unmarked) [SAM] | is stimulated equally by both SAM and its analogue - SIN | 
Nc1ncnc2c1ncn2[C@@H]1O[C@H](C[C@@H](N)CC[C@H](N)C(=O)O)[C@@H](O)[C@H]1O [SIN] |  | is stimulated equally by both SAM and its analogue - SIN

From publication PMC3384240, “Related bifunctional restriction endonuclease-methyltransferase triplets: TspDTI, Tth111II/TthHB27I and TsoI with distinct specificities” (BMC Molecular Biology, 2012)
